# Measured values taken from US20230373985A1 (Origenis Gmbh, priority 2020, published 2023).
# Key:
# [1] = target: T1, wt human NUAK1, full length (Homo sapiens, UniProt O60285); experiment: TR-FRET LanthaScreen Eu Kinase Binding Assay, NUAK1; conditions: read-out: IC50, Activity Toward NUAK1
# T1 construct: 8 nM wt human NUAK1, full length (ThermoFisher/USA); purchased ThermoFisher
# T1 sequence (O60285 1-661): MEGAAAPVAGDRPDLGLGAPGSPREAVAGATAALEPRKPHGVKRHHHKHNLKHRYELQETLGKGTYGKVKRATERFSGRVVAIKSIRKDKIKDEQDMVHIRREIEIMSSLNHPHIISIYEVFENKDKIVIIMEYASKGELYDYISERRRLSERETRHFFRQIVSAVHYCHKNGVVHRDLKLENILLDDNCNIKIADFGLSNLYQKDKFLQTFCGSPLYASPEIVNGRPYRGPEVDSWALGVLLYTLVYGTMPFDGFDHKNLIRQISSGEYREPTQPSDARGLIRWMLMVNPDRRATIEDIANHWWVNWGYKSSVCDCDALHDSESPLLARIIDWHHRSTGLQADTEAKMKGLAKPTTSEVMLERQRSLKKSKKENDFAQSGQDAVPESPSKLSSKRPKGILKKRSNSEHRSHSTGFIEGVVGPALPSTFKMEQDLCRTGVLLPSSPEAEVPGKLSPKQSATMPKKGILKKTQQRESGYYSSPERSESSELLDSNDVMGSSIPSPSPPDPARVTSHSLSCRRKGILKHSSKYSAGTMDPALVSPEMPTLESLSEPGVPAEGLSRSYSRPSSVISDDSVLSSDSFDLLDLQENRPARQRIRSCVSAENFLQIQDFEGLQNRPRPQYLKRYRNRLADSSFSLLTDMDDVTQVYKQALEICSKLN
# Experimental: The basic protocol for TR-FRET LanthaScreen Eu Kinase Binding Assay inhibitor studies were performed as follows. LanthaScreen Kinase Binding Assays (ThermoFisher/USA) to evaluate inhibitors were performed by addition of 5 μL of test compound in corresponding DMSO dilutions/5 μl of kinase/antibody mixture, 5 μL of tracer into 384 well small volume plates. After incubation for 1 hour at room temperature, plates were read. Data analysis of emission ratios was according LanthaScreen Eu Kinase Binding Assay protocol.
# Kinase and assay components were adjusted to final concentrations according to kit protocol. For LRRK2: 5 nM wt human LRRK2, catalytic site, or G2019S human LRRK2, catalytic site (ThermoFisher/USA), 2 nM Eu-Anti-GST Antibody, 10 nM Kinase Tracer 236 in 1× Kinase Buffer A. For NUAK1: 8 nM wt human NUAK1, full length (ThermoFisher/USA), 2 nM Eu-Anti-His Antibody, 5 nM Kinase Tracer 236 in 1× Kinase Buffer A.
# [2] = target: T2, wt human JAK1, catalytic site (Homo sapiens, UniProt P23458); experiment: HTRF KinEASE assay, JAK1; assay type: biochemical; conditions: 2.5 μM ATP; read-out: IC50, Activity Toward JAK1
# T2 construct: wt human JAK1, catalytic site; purchased ThermoFisher
# T2 sequence (P23458 875-1153 limits assumed): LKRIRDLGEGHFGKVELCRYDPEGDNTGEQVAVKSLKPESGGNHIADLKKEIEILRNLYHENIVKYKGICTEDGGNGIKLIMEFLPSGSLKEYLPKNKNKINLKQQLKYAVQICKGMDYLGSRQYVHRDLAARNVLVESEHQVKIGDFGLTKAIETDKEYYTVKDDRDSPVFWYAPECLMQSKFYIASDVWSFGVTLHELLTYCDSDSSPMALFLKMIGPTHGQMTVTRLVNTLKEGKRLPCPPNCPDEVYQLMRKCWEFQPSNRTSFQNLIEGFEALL
# Summary of the method: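 Two-step HTRF KinEASE assay: compound, kinase/biotinylated TK substrate and ATP were incubated at least 30 min at room temperature. Antibody plus streptavidin-XL665 was then added and plates were read after 60 min. Inhibition was derived from emission ratios according to the kit protocol.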
# [3] = target: T3, wt human TYK2, catalytic site (Homo sapiens, UniProt P29597); experiment: HTRF KinEASE assay, TYK2; assay type: biochemical; conditions: 1 μM ATP; read-out: IC50, Activity Toward TYK2
# T3 construct: wt human TYK2, catalytic site; purchased SignalChem
# T3 sequence (P29597 897-1176 limits assumed): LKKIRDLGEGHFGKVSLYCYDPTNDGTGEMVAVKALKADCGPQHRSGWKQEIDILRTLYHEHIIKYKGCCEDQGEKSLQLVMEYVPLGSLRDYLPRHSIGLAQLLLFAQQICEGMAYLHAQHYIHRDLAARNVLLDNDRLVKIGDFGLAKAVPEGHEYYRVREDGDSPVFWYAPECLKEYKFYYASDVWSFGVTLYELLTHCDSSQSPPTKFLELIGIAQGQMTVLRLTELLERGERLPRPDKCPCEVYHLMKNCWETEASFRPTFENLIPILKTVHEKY
# Summary of the method: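 HTRF KinEASE-TK readout with 1 μM biotinylated TK substrate in 1× kinase buffer, ≥30 min at room temperature, then antibody/streptavidin-XL665 detection for 60 min. TYK2 at 2 nM with 1 μM ATP; JAK2 at 1 nM with 100 μM ATP. Analysis uses emission ratios.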
# [4] = target: T4, G2019S human LRRK2, catalytic site (Homo sapiens, UniProt Q5S007, G2019S); experiment: TR-FRET LanthaScreen Eu Kinase Binding Assay, LRRK2 G2019S; conditions: LRRK2(G2019); one range stated for wt and G2019; read-out: IC50, Activity Toward LRRK2(G2019)
# T4 construct: G2019S human LRRK2, catalytic site; purchased ThermoFisher
# T4 sequence (Q5S007 970-2527 G2019S limits assumed): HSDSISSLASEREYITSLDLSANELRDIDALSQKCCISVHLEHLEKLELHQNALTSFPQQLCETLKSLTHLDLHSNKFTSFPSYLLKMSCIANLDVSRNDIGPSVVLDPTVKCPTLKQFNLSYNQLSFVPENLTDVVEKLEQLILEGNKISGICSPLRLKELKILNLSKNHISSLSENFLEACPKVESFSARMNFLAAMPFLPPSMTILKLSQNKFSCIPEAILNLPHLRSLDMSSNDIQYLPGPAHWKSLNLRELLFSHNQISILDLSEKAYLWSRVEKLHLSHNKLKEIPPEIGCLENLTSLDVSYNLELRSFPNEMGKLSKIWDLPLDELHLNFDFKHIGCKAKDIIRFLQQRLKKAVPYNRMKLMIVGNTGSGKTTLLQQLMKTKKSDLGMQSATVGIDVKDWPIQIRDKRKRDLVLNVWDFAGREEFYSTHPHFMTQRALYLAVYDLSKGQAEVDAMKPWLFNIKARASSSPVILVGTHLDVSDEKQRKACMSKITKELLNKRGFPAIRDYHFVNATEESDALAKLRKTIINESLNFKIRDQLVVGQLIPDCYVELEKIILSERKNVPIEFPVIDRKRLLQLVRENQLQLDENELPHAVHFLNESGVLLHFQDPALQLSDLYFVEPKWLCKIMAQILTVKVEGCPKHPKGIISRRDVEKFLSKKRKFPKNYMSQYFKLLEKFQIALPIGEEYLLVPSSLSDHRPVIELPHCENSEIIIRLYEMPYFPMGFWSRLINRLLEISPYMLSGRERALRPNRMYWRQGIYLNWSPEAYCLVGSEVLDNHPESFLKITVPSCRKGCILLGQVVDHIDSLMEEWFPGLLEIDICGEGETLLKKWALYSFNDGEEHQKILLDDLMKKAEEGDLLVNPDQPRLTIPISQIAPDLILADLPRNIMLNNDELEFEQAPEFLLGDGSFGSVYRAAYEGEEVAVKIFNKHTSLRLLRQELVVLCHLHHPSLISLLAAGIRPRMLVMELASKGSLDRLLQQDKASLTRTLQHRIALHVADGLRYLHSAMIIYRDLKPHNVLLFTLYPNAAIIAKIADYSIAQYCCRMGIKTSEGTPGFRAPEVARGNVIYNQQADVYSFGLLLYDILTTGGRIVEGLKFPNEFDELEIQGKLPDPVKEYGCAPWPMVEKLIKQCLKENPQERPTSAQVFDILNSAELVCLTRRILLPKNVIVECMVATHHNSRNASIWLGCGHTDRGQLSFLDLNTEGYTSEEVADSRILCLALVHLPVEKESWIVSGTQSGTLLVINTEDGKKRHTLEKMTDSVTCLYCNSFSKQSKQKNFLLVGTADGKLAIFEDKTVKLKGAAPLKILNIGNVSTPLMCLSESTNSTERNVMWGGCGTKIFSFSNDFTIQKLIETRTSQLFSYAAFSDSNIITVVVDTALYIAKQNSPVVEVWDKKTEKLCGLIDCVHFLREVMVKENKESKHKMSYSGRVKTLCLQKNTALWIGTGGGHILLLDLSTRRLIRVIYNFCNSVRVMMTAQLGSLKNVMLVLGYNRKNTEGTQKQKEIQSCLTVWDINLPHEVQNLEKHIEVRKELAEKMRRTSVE
# Summary of the method: (§1)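 Emission ratios from TR-FRET were analysed per the LanthaScreen binding protocol after 1 h room-temperature incubation of compound, kinase/antibody and Kinase Tracer 236. Final levels were 5 nM LRRK2 with 2 nM Eu-anti-GST and 10 nM tracer, or 8 nM NUAK1 with 2 nM Eu-anti-His and 5 nM tracer.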
# [5] = target: T5, wt human LRRK2, catalytic site (Homo sapiens, UniProt Q5S007); experiment: TR-FRET LanthaScreen Eu Kinase Binding Assay, LRRK2 wt; conditions: one range stated for wt and G2019, read-out: IC50, Activity Toward LRRK2(Wt)
# T5 construct: 5 nM wt human LRRK2, catalytic site; purchased ThermoFisher
# T5 sequence (Q5S007 970-2527 limits assumed): as the sequence (Q5S007 970-2527 G2019S limits assumed) above, with S1050G counted along it
# Summary of the method: as §1
Structure (SMILES),IC50 [1] [nM],IC50 [2] [nM],IC50 [3] [nM],IC50 [4] [nM],IC50 [5] [nM]
"Cc1nc2cc(Nc3cn(-c4c(F)cccc4Cl)nc3C(N)=O)ccc2n1C [compound 44, 1-(2-chloro-6-fluorophenyl)-4-((1,2-dimethyl-1H-benzo[d]imidazol-5-yl)amino)-1H-pyrazole-3-carboxamide]",100 to 1000,100 to 1000,10 to 100,–,–
"NC(=O)c1nn(-c2c(Cl)cccc2Cl)cc1Nc1cn[nH]c1 [compound 407, 4-((1H-pyrazol-4-yl)amino)-1-(2,6-dichlorophenyl)-1H-pyrazole-3-carboxamide]",100 to 1000,100 to 1000,100 to 1000,–,–
"NC(=O)c1nn(-c2c(Cl)cccc2Cl)cc1Nc1cnc(C(=O)N2CC[C@@H](F)C2)cn1 [compound 403, (R)-1-(2,6-dichlorophenyl)-4-((5-(3-fluoropyrrolidine-1-carbonyl)pyrazin-2-yl)amino)-1H-pyrazole-3-carboxamide]",100 to 1000,–,100 to 1000,–,–
"NC(=O)c1nn(-c2c(Cl)cccc2Cl)cc1Nc1ccc(OC2CCNCC2)cc1 [compound 424, 1-(2,6-dichlorophenyl)-4-((4-(piperidin-4-yloxy)phenyl)amino)-1H-pyrazole-3-carboxamide]",100 to 1000,100 to 1000,10 to 100,–,–
"NC(=O)c1nn(-c2c(Cl)cccc2Cl)cc1Nc1ccc(C(=O)N2CC[C@H](N)C2)cc1 [compound 319, (S)-4-((4-(3-aminopyrrolidine-1-carbonyl)phenyl)amino)-1-(2,6-dichlorophenyl)-1H-pyrazole-3-carboxamide]",100 to 1000,10 to 100,10 to 100,–,–
"CN(C)[C@H]1CCN(C(=O)c2ccc(Nc3cn(-c4c(Cl)cccc4Cl)nc3C(N)=O)cc2)C1 [compound 314, (S)-1-(2,6-dichlorophenyl)-4-((4-(3-(dimethylamino)pyrrolidine-1-carbonyl)phenyl)amino)-1H-pyrazole-3-carboxamide]",100 to 1000,10 to 100,< 10,–,–
"Cc1ccnn1-c1ccc(Nc2cn(-c3c(Cl)cccc3Cl)nc2C(N)=O)cc1 [compound 80, 1-(2,6-dichlorophenyl)-4-((4-(5-methyl-1H-pyrazol-1-yl)phenyl)amino)-1H-pyrazole-3-carboxamide]",–,10 to 100,10 to 100,100 to 1000,100 to 1000
"Cc1cccc2nnc(-c3ccc(Nc4cn(-c5c(Cl)cccc5Cl)nc4C(N)=O)cn3)n12 [compound 388, 1-(2,6-dichlorophenyl)-4-((6-(5-methyl-[1,2,4]triazolo[4,3-a]pyridin-3-yl)pyridin-3-yl)amino)-1H-pyrazole-3-carboxamide]",–,10 to 100,10 to 100,100 to 1000,100 to 1000
"Cc1c[n+]([O-])ccc1-c1ccc(Nc2cn(-c3c(Cl)cccc3Cl)nc2C(N)=O)cc1 [compound 267, 4-(4-((3-carbamoyl-1-(2,6-dichlorophenyl)-1H-pyrazol-4-yl)amino)phenyl)-3-methylpridine_1-oxide]",–,10 to 100,10 to 100,100 to 1000,100 to 1000
"N#Cc1ccnnc1-c1ccc(Nc2cn(-c3c(Cl)cccc3Cl)nc2C(N)=O)cc1 [compound 60, 4-((4-(4-cyanopyridazin-3-yl)phenyl)amino)-1-(2,6-dichlorophenyl)-1H-pyrazole-3-carboxamide]",–,10 to 100,10 to 100,100 to 1000,100 to 1000
"NC(=O)c1nn(-c2c(Cl)cccc2Cl)cc1Nc1ccc(C(=O)N2CCC(F)C2)cc1 (stereo not drawn) [compound 246, 1-(2,6-dichlorophenyl)-4-((4-(3-fluoropyrrolidine-1-carbonyl)phenyl)amino)-1H-pyrazole-3-carboxamide]",–,10 to 100,10 to 100,100 to 1000,100 to 1000
"CN1CCN(S(=O)(=O)c2ccc(Nc3cn(-c4c(Cl)cccc4Cl)nc3C(N)=O)cc2)CC1 [compound 85, 1-(2,6-dichlorophenyl)-4-((4-((4-methylpiperazin-1-yl)sulfonyl)phenyl)amino)-1H-pyrazole-3-carboxamide]",–,10 to 100,< 10,100 to 1000,100 to 1000
"NC(=O)c1nn(-c2c(Cl)cccc2Cl)cc1Nc1ccc(C(=O)N2CCN(CC(F)F)CC2)cc1 [compound 83, 1-(2,6-dichlorophenyl)-4-((4-(4-(2,2-difluoroethyl)piperazine-1-carbonyl)phenyl)amino)-1H-pyrazole-3-carboxamide]",–,100 to 1000,< 10,100 to 1000,100 to 1000
"Cn1cc(C(F)(F)F)nc1-c1ccc(Nc2cn(-c3c(F)cccc3Cl)nc2C(N)=O)cc1 [compound 305, 1-(2-chloro-6-fluorophenyl)-4-((4-(1-methyl-4-(trifluoromethyl)-1H-imidazol-2-yl)phenyl)amino)-1H-pyrazole-3-carboxamide]",–,10 to 100,< 10,100 to 1000,100 to 1000
"NC(=O)c1nn(-c2c(Cl)cccc2Cl)cc1Nc1ccc(C(=O)N2CCN(C3CC3)CC2)cc1 [compound 84, 4-((4-(4-cyclopropylpiperazine-1-carbonyl)phenyl)amino)-1-(2,6-dichlorophenyl)-1H-pyrazole-3-carboxamide]",–,10 to 100,< 10,100 to 1000,100 to 1000
"NC(=O)c1nn(-c2c(Cl)cccc2Cl)cc1Nc1ccc(-c2nncn2/C=C/F)cc1 [compound 415, (E)-1-(2,6-dichlorophenyl)-4-((4-(4-(2-fluorovinyl)-4H-1,2,4-triazol-3-yl)phenyl)amino)-1H-pyrazole-3-carboxamide]",–,10 to 100,< 10,100 to 1000,100 to 1000
"NC(=O)c1nn(-c2c(Cl)cccc2Cl)cc1Nc1ccc(C(=O)N2CCC(F)(F)C2)cc1 [compound 247, 1-(2,6-dichlorophenyl)-4-((4-(3,3-difluoropyrrolidine-1-carbonyl)phenyl)amino)-1H-pyrazole-3-carboxamide]",–,10 to 100,< 10,100 to 1000,100 to 1000
"NC(=O)c1nn(-c2c(Cl)cccc2Cl)cc1Nc1ccc(C(=O)NCCF)cc1 [compound 421, 1-(2,6-dichlorophenyl)-4-((4-((2-fluoroethyl)carbamoyl)phenyl)amino)-1H-pyrazole-3-carboxamide]",–,10 to 100,10 to 100,100 to 1000,100 to 1000
"NC(=O)c1nn(-c2c(Cl)cccc2Cl)cc1Nc1ccc(-c2cccnn2)cc1 [compound 49, 1-(2,6-dichlorophenyl)-4-((4-(pyridazin-3-yl)phenyl)amino)-1H-pyrazole-3-carboxamide]",–,10 to 100,10 to 100,100 to 1000,100 to 1000
